For the assay, the target named is T1, rNav1.2 sodium channels (Rattus norvegicus, UniProt P04775).
T1 construct: host or cells: HEK-293
Briefly: QPatch automated patch clamp, inhibition of sodium currents evoked by 5 Hz trains at three extracellular pH values. Format: cell-based. Particulars: for class of pH-dependence pattern (cluster analysis): Ward's method on 18 variables of affinity, reversibility, onset. The protocol:
HEK-293 cells stably expressing rNav1.2 sodium channels were obtained from NeuroSearch (Ballerup, Denmark). The cells were grown in Dulbecco's modified Eagle medium supplemented with 10% FBS. Prior to use, the cells were trypsinized and subsequently kept in suspension in the QPatch cell storage facility in CHO-S- SFM-II medium.
Composition of the extracellular solution was: (in mM): 140 NaCl, 3 KCl, 1 CaCl2 1 MgCl2, 0.1 CdCl2, 20 TEA-Cl, 5 HEPES, adjusted to pH 7.3, Osmolality: 320 mOsm. […] Drugs were synthesized in Gedeon Richter Plc. […] The full list of drugs, with their three-letter codes, concentration, as well as their main therapeutic indication and main mechanism of action are shown in Table 1. […] The choice of concentrations used in this study may seem unusually high.
Data were sampled at a frequency of 25 kHz and filtered at 5 kHz. Junction potential was calculated to be −11 mV and was corrected for. […] Cells having membrane resistance < 500 MOhm, series resistance > 9 MOhm, or capacitance > 22 pF were excluded from analysis. The experimental protocol was also identical to the one used in our previous study: sodium channels were activated by 5 Hz trains of 5 depolarizations (−90 to −10 mV) repeated in every 20 s. In this study, however, the same control–drug-application–washout sequence was repeated four times: at neutral, acidic, alkalic, and again neutral pH. The peak amplitudes of sodium currents throughout the whole experiment are shown plotted against time in Figure 1 and Supplementary Figure 1.
Initial analysis, including subtraction of leak and capacitive artifacts, as well as peak detection were done in the QPatch software. […] All experiments were normalized to the amplitude of the current evoked by the first depolarization of the last train under control conditions. […] For all four drug applications in an experiment, apparent affinity, onset and offset time constants as well as reversibility values were calculated. […] (This method is equivalent to applying the Lineweaver-Burk plot method using a single concentration.) Reversibility values were calculated from control (c), inhibited (i), and wash-out (w) amplitudes as follows: Reversibility = (w-i)/(c-i). Reversibility values should not be regarded as experimental platform-independent properties of compounds. […] However, reversibility values are a valuable source of information regarding physicochemical differences between individual drugs, or between effects of the same drug under different extracellular pH conditions. Onset and offset time constants were determined by single exponential fitting to individual experiments. For neutral pH numerical data were given as the average of the data from the first and the last drug applications. Thin black lines on Figure 1 and Supplemental Figure 1 show the average of five fitted exponentials, (not the exponential fitted to the averaged normalized amplitudes). The numerical values of apparent affinity, onset and offset time constants and reversibility are shown in Table 2, and their relative position is illustrated in Figure 2. Affinity and time constant values were logarithmically transformed for statistics, therefore we show their geometric mean. For recovery data no transformation was done, and we show arithmetic mean values. Significance values were calculated using paired, two-tailed Student's t-test based on five pairs of apparent affinity (log transform), time constant (log transform), or reversibility values obtained from five individual experiments. Because of the large number of comparisons in this study, we accepted p < 0.01 as significant. Cluster analysis was done using Ward's minimum variance method, with Euclidean distance measure. Data were normalized by subtracting the mean (after logarithmic transformation in the case of apparent affinity and time constants), and dividing by the standard deviation.
(The patch-clamp technique gives a direct electrical read-out from membranes.)

Setting [1] is: pH 6.0, concentration (lidocaine 300 μM, memantine 30 μM).
Where [2] appears, read: pH 6.0, single concentration (lidocaine 300 μM, memantine 30 μM), geometric mean of 5, read-out: apparent affinity.
Setting [3] is: pH 7.3, concentration (lidocaine 300 μM, memantine 30 μM).
[4] abbreviates: pH 7.3, single concentration (lidocaine 300 μM, memantine 30 μM), geometric mean of 5, read-out: apparent affinity.
The mark [5] stands for this setting: pH 8.6, concentration (lidocaine 300 μM, memantine 30 μM).
The mark [6] stands for this setting: pH 8.6, single concentration (lidocaine 300 μM, memantine 30 μM), geometric mean of 5, read-out: apparent affinity.
The mark [7] stands for this setting: pH=6.0, cc 300 mM, read-out: Apparent Affinity.
The mark [8] stands for this setting: pH=7.3, cc 300 mM, read-out: Apparent Affinity.
Setting [9] is: pH=8.6, cc 300 mM, read-out: Apparent Affinity.

SMILES strings stand for the structures. Like-named read-outs stand apart in the source and are kept apart here.

T1 sequence (P04775 whole entry): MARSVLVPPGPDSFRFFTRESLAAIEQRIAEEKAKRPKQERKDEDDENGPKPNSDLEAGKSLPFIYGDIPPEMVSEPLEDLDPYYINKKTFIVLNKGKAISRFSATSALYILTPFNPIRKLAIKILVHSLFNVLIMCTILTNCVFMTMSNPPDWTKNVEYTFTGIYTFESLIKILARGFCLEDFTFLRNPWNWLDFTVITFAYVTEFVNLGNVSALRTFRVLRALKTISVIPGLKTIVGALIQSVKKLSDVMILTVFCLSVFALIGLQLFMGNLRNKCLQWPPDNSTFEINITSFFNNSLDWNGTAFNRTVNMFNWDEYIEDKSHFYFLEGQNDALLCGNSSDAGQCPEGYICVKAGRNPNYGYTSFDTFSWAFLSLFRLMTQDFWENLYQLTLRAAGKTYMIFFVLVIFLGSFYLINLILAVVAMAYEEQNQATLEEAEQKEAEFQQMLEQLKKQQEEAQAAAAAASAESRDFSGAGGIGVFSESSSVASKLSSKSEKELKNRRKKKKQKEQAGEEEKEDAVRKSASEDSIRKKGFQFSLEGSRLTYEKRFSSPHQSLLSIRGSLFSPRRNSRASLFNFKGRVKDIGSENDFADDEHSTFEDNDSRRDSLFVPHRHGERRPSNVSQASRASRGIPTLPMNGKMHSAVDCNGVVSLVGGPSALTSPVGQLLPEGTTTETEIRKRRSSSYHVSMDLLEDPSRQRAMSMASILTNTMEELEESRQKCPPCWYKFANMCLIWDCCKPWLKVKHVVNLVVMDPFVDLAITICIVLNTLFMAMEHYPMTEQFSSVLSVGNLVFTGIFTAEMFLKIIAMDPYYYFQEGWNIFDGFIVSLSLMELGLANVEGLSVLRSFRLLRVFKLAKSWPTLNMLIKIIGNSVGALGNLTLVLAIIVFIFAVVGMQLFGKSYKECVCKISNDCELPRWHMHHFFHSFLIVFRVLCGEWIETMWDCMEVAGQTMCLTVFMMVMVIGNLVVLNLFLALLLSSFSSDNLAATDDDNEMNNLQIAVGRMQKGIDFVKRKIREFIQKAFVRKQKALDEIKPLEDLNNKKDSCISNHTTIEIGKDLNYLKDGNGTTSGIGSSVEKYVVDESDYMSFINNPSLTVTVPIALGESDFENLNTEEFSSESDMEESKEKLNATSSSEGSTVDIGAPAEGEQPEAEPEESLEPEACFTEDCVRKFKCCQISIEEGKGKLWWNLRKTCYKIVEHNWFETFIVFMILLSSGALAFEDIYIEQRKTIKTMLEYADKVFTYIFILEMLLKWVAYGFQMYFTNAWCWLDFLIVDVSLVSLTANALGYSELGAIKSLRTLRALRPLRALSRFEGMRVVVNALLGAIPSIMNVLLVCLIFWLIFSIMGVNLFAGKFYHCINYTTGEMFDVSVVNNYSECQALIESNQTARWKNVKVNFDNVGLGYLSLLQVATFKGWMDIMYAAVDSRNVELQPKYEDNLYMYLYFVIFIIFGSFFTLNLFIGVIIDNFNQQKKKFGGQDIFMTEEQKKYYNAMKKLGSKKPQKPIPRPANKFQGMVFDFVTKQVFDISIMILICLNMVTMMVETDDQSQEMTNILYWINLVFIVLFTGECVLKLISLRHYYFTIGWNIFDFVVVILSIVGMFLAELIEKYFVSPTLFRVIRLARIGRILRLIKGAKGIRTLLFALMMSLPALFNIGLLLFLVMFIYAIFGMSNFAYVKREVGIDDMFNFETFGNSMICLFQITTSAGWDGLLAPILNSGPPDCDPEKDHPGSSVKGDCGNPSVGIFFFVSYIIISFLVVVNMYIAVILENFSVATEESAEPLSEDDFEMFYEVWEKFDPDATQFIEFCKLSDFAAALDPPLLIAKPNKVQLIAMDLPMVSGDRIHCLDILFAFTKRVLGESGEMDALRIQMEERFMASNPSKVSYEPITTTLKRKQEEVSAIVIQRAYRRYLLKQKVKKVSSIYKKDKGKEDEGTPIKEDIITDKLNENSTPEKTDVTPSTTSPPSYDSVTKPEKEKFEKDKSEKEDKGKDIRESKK

For the molecule `CCc1nn(CCCN2CCN(c3cccc(Cl)c3)CC2)c(=O)n1CCOc1ccccc1` [nefazodone], the “class of pH-dependence pattern (cluster analysis)” value (from here on “class of pH-dependence pattern”) is “Class G”. The alkalization-induced recovery result (neutral-to-alkalic solution exchange, in words) is listed as “prominent alkalization-induced recovery”. Further, the “reversibility at all three pH values” (pH 6.0, 7.3 and 8.6) is listed as “below 0.6”. In addition, for the setting “pH 6.0/7.3, cc 30 mM”, the “Ratio Reversibility” value was 0.854, the “Ratio Tau Offset” value was found to be 0.978, the “Ratio Tau Onset” value worked out at 0.875 and the “log Ratio App Aff” value worked out at 0.341. For the same molecule, under “pH 6.0/8.6, cc 30 mM”, the “Ratio Reversibility” value worked out at 1.152, the “Ratio Tau Offset” value turned out to be 0.825, the “Ratio Tau Onset” value came to 0.863 and the “log Ratio App Aff” value is 0.122. Under setting [1], this molecule yielded a τoffset of 13.20 s and a τonset of 12.60 s. For the same molecule, the Kd under setting [2] came out at 38.2 µM. Also, for the setting “pH 7.3/8.6, cc 30 mM”, the “Ratio Reversibility” value is reported as 1.349, the “Ratio Tau Offset” value was 0.844, the “Ratio Tau Onset” value is reported as 0.986 and the “log Ratio App Aff” value was -0.220. Besides, under setting [3], the τoffset was 13.50 s and the τonset came to 14.40 s. Besides, the Kd under setting [4] was found to be 17.4 µM. Under setting [5], the τoffset amounted to 16.00 s and the τonset is 14.60 s. Also, under setting [6], the Kd stood at 28.9 µM. For the same molecule, the Reversibility (pH=6.0, cc 30 mM) was 0.51. Also, the Kd (pH=6.0, cc 30 mM, read-out: Apparent Affinity) was 38.2 µM. The molecule further gave a Reversibility (pH=7.3, cc 30 mM) of 0.59. Also, under “pH=7.3, cc 30 mM, read-out: Apparent Affinity”, the Kd stood at 17.4 µM. In addition, the Reversibility (pH=8.6, cc 30 mM) is 0.44. In addition, for the setting “pH=8.6, cc 30 mM, read-out: Apparent Affinity”, the Kd stood at 28.9 µM.

Regarding `NC(=O)N1c2ccccc2C=Cc2ccccc21` [carbamazepine], the “class of pH-dependence pattern” value is “Class A”. Where the note is “pH 6.0/7.3, cc 300 mM”, the “Ratio Reversibility” value is given as 0.728, the “Ratio Tau Offset” value worked out at 1.229, the “Ratio Tau Onset” value was found to be 0.800 and the “log Ratio App Aff” value was -0.028. Where the note is “pH 6.0/8.6, cc 300 mM”, the “Ratio Reversibility” value is listed as 0.955, the “Ratio Tau Offset” value worked out at 1.490, the “Ratio Tau Onset” value was 0.800 and the “log Ratio App Aff” value worked out at 0.00109. Under setting [1], this molecule gave a τoffset of 12.30 s and a τonset of 4.00 s. Moreover, the Kd under setting [2] amounted to 545 µM. Further, under “pH 7.3/8.6, cc 300 mM”, the “Ratio Reversibility” value worked out at 1.312, the “Ratio Tau Offset” value worked out at 1.212, the “Ratio Tau Onset” value stood at 1.000 and the “log Ratio App Aff” value is recorded as 0.029. Further, under setting [3], the τoffset stood at 10.01 s and the τonset is given as 5.00 s. Further, the Kd under setting [4] stood at 581 µM. Besides, under setting [5], the τoffset worked out at 8.25 s and the τonset is on record as 5.00 s. The Kd under setting [6] amounted to 543 µM. Besides, the Reversibility (pH=6.0, cc 300 mM) was 0.67. Also, the Kd under setting [7] is 545 µM. Further, the Reversibility (pH=7.3, cc 300 mM) came to 0.92. Besides, the Kd under setting [8] came to 581 µM. Moreover, the Reversibility (pH=8.6, cc 300 mM) is 0.70. Moreover, under setting [9], the Kd was determined as 543 µM.

Turning to `Nc1nc2ccc(OC(F)(F)F)cc2s1` [riluzole], the “class of pH-dependence pattern” value was “Class G”. Further, under setting [1], the τoffset is 23.60 s and the τonset was determined as 9.20 s. Under setting [3], this molecule yielded a τoffset of 21.40 s and a τonset of 9.60 s. Under setting [5], this molecule returned a τoffset of 23.40 s and a τonset of 10.40 s. The same molecule returned a Reversibility (pH=6.0, cc 30 mM) of 0.45. This molecule gave a Reversibility (pH=7.3, cc 30 mM) of 0.73. For the same molecule, where the note is “pH=8.6, cc 30 mM”, the Reversibility was 0.45.

On to `CCN(CC)CC(=O)Nc1c(C)cccc1C` [lidocaine], for which the “class of pH-dependence pattern” value is reported as “Class A”. In addition, under setting [1], the τoffset stood at 8.49 s and the τonset amounted to 6.17 s. Besides, under “pH 6.0, higher concentration: lidocaine 1000 μM, memantine 100 μM”, the τonset is given as 5.20 s. In addition, the Kd (pH 6.0, higher concentration: lidocaine 1000 μM, memantine 100 μM, read-out: apparent affinity) was determined as 1670 µM. For the same molecule, under setting [2], the Kd is 917 µM. Moreover, under setting [3], the τoffset was 7.59 s and the τonset is 5.14 s. Also, the τonset (pH 7.3, higher concentration: lidocaine 1000 μM, memantine 100 μM) is 5.20 s. Moreover, the Kd (pH 7.3, higher concentration: lidocaine 1000 μM, memantine 100 μM, read-out: apparent affinity) was 1030 µM. Besides, the Kd under setting [4] turned out to be 806 µM. Under setting [5], this molecule yielded a τoffset of 5.98 s and a τonset of 4.86 s. The molecule further registered a τonset (pH 8.6, higher concentration: lidocaine 1000 μM, memantine 100 μM) of 5.60 s. Further, the Kd (pH 8.6, higher concentration: lidocaine 1000 μM, memantine 100 μM, read-out: apparent affinity) was 677 µM. Further, the Kd under setting [6] was 515 µM. The molecule also yielded a Reversibility (pH=6.0, cc 300 mM) of 0.66. Besides, under setting [7], the Kd was 917 µM. For the setting “pH=6.0, cc 1000 mM, read-out: Apparent Affinity”, the Kd was determined as 1670 µM. Moreover, under setting [8], the Kd worked out at 806 µM. In addition, under “pH=7.3, cc 1000 mM, read-out: Apparent Affinity”, the Kd came out at 1030 µM. In addition, the Kd under setting [9] was determined as 515 µM. The Kd (pH=8.6, cc 1000 mM, read-out: Apparent Affinity) worked out at 677 µM.

With `CCCCN1CCCCC1C(=O)Nc1c(C)cccc1C` (stereo not drawn) [bupivacaine], the “class of pH-dependence pattern” value is “Class B”. The “effect of alkalic pH on onset/offset kinetics” value (in words) was “significant acceleration of both onset and offset”. For the setting “pH 6.0/7.3, cc 100 mM”, the “Ratio Reversibility” value is 0.906, the “Ratio Tau Offset” value was 2.692, the “Ratio Tau Onset” value came to 4.180 and the “log Ratio App Aff” value turned out to be 0.218. Moreover, under “pH 6.0/8.6, cc 100 mM”, the “Ratio Reversibility” value was 1.346, the “Ratio Tau Offset” value worked out at 4.516, the “Ratio Tau Onset” value was found to be 4.322 and the “log Ratio App Aff” value was determined as 0.412. Under setting [1], this molecule gave a τoffset of 56.00 s and a τonset of 51.00 s. Further, the Kd under setting [2] is 106 µM. For the same molecule, under “pH 7.3/8.6, cc 100 mM”, the “Ratio Reversibility” value is 1.485, the “Ratio Tau Offset” value amounted to 1.677, the “Ratio Tau Onset” value amounted to 1.034 and the “log Ratio App Aff” value was determined as 0.194. For the same molecule, under setting [3], the τoffset is 20.80 s and the τonset was determined as 12.20 s. Besides, the Kd under setting [4] was found to be 64.2 µM. Under setting [5], this molecule displayed a τoffset of 12.40 s and a τonset of 11.80 s. Also, under setting [6], the Kd was 41 µM. Moreover, for the setting “pH=6.0, cc 100 mM”, the Reversibility was determined as 0.64. Also, for the setting “pH=6.0, cc 100 mM, read-out: Apparent Affinity”, the Kd stood at 106 µM. For the same molecule, where the note is “pH=7.3, cc 100 mM”, the Reversibility was found to be 0.71. In addition, the Kd (pH=7.3, cc 100 mM, read-out: Apparent Affinity) was 64.2 µM. Also, the Reversibility (pH=8.6, cc 100 mM) is 0.48. Also, for the setting “pH=8.6, cc 100 mM, read-out: Apparent Affinity”, the Kd stood at 41 µM.

For the origin of these results see PMC4585259 (Frontiers in Pharmacology, 2015).
